From patent US11466012B2, “Tetrahydroisoquinoline compounds” (ALLINKY BIOPHARMA, priority 2018, dated 2022)

Columns and labels:
[1] = tested on: NCI-H358 human lung cancer xenograft; assay: Subcutaneous NCI-H358 human lung cancer xenograft model in NOD/SCID mice; format: in vivo
Source text: Evaluation of the Efficacy of compound 18 in the Treatment of Subcutaneous NCI-H358 Human Lung Cancer Xenograft Model in NOD/SCID Mice
The treatments were started when the mean tumor size reached 141 mm^3. The test article administration and the animal numbers in each study group are shown in the following experimental design table.
Tumor growth inhibition (TGI): TGI (%) is an indication of antitumor effectiveness, and expressed as: TGI (%)=100×(1−T/C). T and C were the mean tumor volume of the treated and control groups, respectively, on a given day.

NIH-H358 cell line = assay: 3D CellTiter-Glo cell viability assay; format: cell-based; conditions: 168 h, 7 days' compound treatment, 0.65% methylcellulose
Description: The protocol to perform 3D CellTiter-Glo™ cell viability assay is as follows:
Day −1: Cell Plating • Adjust cell concentrations to 1×10^5 cells/ml with respective medium. (Cell concentration is adjusted according to data base or density optimization assay). Mix 3.5 mL of cell suspension 6.5 mL of 1% methylcellulose. Mix and wait for bubbles to disperse before pipetting. This step yields 10 ml of cell suspension in 0.65% methylcellulose solution. Add 99.5 μL cell suspensions to 96-well plates according to plate map with final cell density. • Two duplicate plates will be set up. One is for day 0 reading (T0) and the other will be cultured in incubator for reading at the end point. • Incubate the plates overnight in humidified incubator at 37° C. with 5% CO2.
Day 0: T0 plate reading and compound treatment • Take T0 plate, add 0.5 μL culture medium to each well for T0 reading. • Add 100 μl CellTiter-Glo® Reagent to each well. • Mix contents for 2 minutes on an orbital shaker to facilitate cell lysis. • Allow the plate to incubate at room temperature for 10 minutes to stabilize luminescent signal. • Record luminescence using EnVision Multi Label Reader. • Dilute the test articles at the concentration indicated at Test Articles Dilution. Add 0.5 μL of each 200× compound working solutions according to plate inoculation map.
Day 7: Plate reading of 7 days' compound treatment • Add 100 μL CellTiter-Glo® Reagent to each well. • Mix contents for 2 minutes on an orbital shaker to facilitate cell lysis. • Allow the plate to incubate at room temperature for 10 minutes to stabilize luminescent signal. • Record luminescence using EnVision Multi Label Reader.

[2] = tested on: A549 lung carcinoma cell line bearing KRas^G12S oncogenic mutation; assay: Cell proliferation inhibition (MTS), A549; format: cell-based; conditions: Homo sapiens
Description: (§1) • Cell line #1: A549. Lung carcinoma cell line bearing KRas^G12S oncogenic mutation • Cell line #2: H358. non-small cell lung cancer line bearing KRas^G12C oncogenic mutation • Cell line #3: PANC-1. epithelioid carcinoma of the pancreas cell line bearing KRas^G12D oncogenic mutation • Cell line #4: RPMI. myeloma cell line bearing KRas^G12A oncogenic mutation
(§2) Cell lines were cultured in DMEM or RPMI-1640 supplemented with FBS 10%. In order to assess the antiproliferative effect of compounds, cells were seeded at a density of 1.8×10^3, 6.2×10^3, 7.8×10^3, 21×10^3 and 2×10^3 cells/cm^2, respectively, in tissue culture microplates and were incubated in humidified atmosphere at 5% CO2. 24 h later, compounds dissolved in DMSO 100% were added for different final concentrations ranging between 0.1 and 50 μM for a final DMSO concentration of 0.5% and the plates were incubated for another 72 h. After incubation, proliferation was quantified using CellTiter 96® Aqueous Non-Radioactive Cell Proliferation Assay-MTS (Promega #G5421) following manufacturer instructions. Amount of 490 nm absorbance is directly proportional to the number of living cells. Absorbance was recorded with a BMG Fluostar Optima Microplate Reader and normalized to control with vehicle.

[3] = tested on: H358 non-small cell lung cancer line bearing KRas^G12C oncogenic mutation; assay: Cell proliferation inhibition (MTS), H358; format: cell-based; conditions: Homo sapiens, NCI-H358
Description: as §1, §2

[4] = tested on: RPMI-8226 myeloma cell line bearing KRas^G12A oncogenic mutation; assay: Cell proliferation inhibition (MTS), RPMI-8226; format: cell-based; conditions: Homo sapiens
Description: as §1, §2

[5] = tested on: PANC-1 epithelioid carcinoma of the pancreas cell line bearing KRas^G12D oncogenic mutation; assay: Cell proliferation inhibition (MTS), PANC-1; format: cell-based; conditions: Homo sapiens
Description: as §1, §2

[6] = 72 h incubation, MTS, compounds 1-53, median from experimental results
[7] = compounds 54-63, based on estimations and/or preliminary experimental results

IC50 [2, 6] | IC50 [3, 6] | IC50 [4, 6] | IC50 [5, 6] | IC50 [2, 7] | IC50 [3, 7] | IC50 [4, 7] | IC50 [5, 7] | SMILES | other results
> 1000 nM | > 1000 nM | > 1000 nM | > 1000 nM | – | – | – | – | COc1cc2c(cc1OCCc1ccccn1)C(c1ccc(C)cc1C)N(C(=O)NCc1cocn1)CC2 (centres unmarked) [Compound 49] | –
600 nM | 700 nM | 500 nM | 700 nM | – | – | – | – | COc1cc2c(cc1OCCc1cnccn1)C(c1ccc(C)cc1C)N(C(=O)NCc1cocn1)CC2 (centres unmarked) [Compound 53] | –
– | – | – | – | 600 nM | 700 nM | 500 nM | 700 nM | COc1cncc(CCOc2cc3c(cc2OC)CCN(C(=O)NCc2cocn2)C3c2ccc(C)cc2C)n1 (centres unmarked) [Compound 54] | –
– | – | – | – | 600 nM | 600 nM | 600 nM | 500 nM | COc1ccc(CCOc2cc3c(cc2OC)CCN(C(=O)NCc2cocn2)C3c2ccc(C)cc2C)cn1 (centres unmarked) [Compound 55] | –
– | – | – | – | 600 nM | 600 nM | 600 nM | 500 nM | COc1cc2c(cc1OCCc1cccnc1OC)C(c1ccc(C)cc1C)N(C(=O)NCc1cocn1)CC2 (centres unmarked) [Compound 56] | –
– | – | – | – | 600 nM | 600 nM | 600 nM | 500 nM | COc1cc2c(cc1OCCc1ccc(C)nc1)C(c1ccc(C)cc1C)N(C(=O)NCc1cocn1)CC2 (centres unmarked) [Compound 57] | –
– | – | – | – | 600 nM | 700 nM | 500 nM | 7000 nM | COc1cc2c(cc1OCCc1nccnc1C)C(c1ccc(C)cc1C)N(C(=O)NCc1cocn1)CC2 (centres unmarked) [Compound 59] | –
– | – | – | – | 600 nM | 700 nM | 500 nM | 700 nM | COc1cc2c(cc1OCCc1cnc(C)cn1)C(c1ccc(C)cc1C)N(C(=O)NCc1cocn1)CC2 (centres unmarked) [Compound 60] | –
– | – | – | – | 600 nM | 700 nM | 500 nM | 700 nM | COc1cc2c(cc1OCCc1cncc(C)n1)C(c1ccc(C)cc1C)N(C(=O)NCc1cocn1)CC2 (centres unmarked) [Compound 61] | –
– | – | – | – | 600 nM | 700 nM | 500 nM | 700 nM | COc1cc2c(cc1OCCc1nccnc1OC)C(c1ccc(C)cc1C)N(C(=O)NCc1cocn1)CC2 (centres unmarked) [Compound 62] | –
– | – | – | – | 600 nM | 700 nM | 500 nM | 700 nM | COc1cnc(CCOc2cc3c(cc2OC)CCN(C(=O)NCc2cocn2)C3c2ccc(C)cc2C)cn1 (centres unmarked) [Compound 63] | –

The next lines start with the molecule.

SMILES | IC50 [2, 6] | IC50 [3, 6] | IC50 [4, 6] | IC50 [5, 6] | IC50 [2, 7] | IC50 [3, 7] | IC50 [4, 7] | IC50 [5, 7] | other results
N.N.[Cl][Pt][Cl] [Cisplatin, reference compound] | – | – | – | – | – | – | – | – | Mean tumor volume ([1]; PG-D22 (Day 22 after first dosing), i.p., Compound 18 10 mg/kg Bid x 22 day, cisplatin 3.5 mg/kg BIW x 3.5 week, vehicle 630 mm^3): 231 mm^3; Tumor growth inhibition (TGI) ([1]; PG-D22, TGI=100x(1-T/C), i.p., Compound 18 10 mg/kg Bid, cisplatin 3.5 mg/kg BIW): about 63%; Anti-tumor effect compared with vehicle group ([1]; PG-D22, group-2 p=0.026, group-3 p=0.019): significant anti-tumor effects; Number of mice (of 6) whose body weight loss (BWL) reached 10% ([1]; tumor bearing mice, i.p., compound 18 10 mg/kg Bid, cisplatin 3.5 mg/kg BIW): 4
CCNC(=O)N1CCc2cc(OC)c(OCCc3cccc(O)c3)cc2C1c1ccc(C)cc1C (centres unmarked) [Compound 17] | 3520 nM | 3100 nM | 1740 nM | 1830 nM | – | – | – | – | IC50 (NIH-H358 cell line): 620 nM
COc1cc2c(cc1OCCc1cccnc1)C(c1ccc(C)cc1C)N(C(=O)NCc1cocn1)CC2 (centres unmarked) [Compound 23] | 550 nM | 590 nM | 620 nM | 490 nM | – | – | – | – | IC50 (NIH-H358 cell line): 390 nM
Cc1ccc(C2c3cc(OCCc4cccc(F)c4)c(O)cc3CCN2C(=O)NCc2cocn2)c(C)c1 (centres unmarked) [Compound 26] | 2020 nM | 1010 nM | 790 nM | 1150 nM | – | – | – | – | IC50 (NIH-H358 cell line): 9350 nM
Cc1ccc(C2c3cc(OCCc4cccnc4)c(C)cc3CCN2C(=O)NCc2cocn2)c(C)c1 (centres unmarked) [Compound 42] | 490 nM | 1210 nM | 320 nM | 620 nM | – | – | – | – | IC50 (NIH-H358 cell line): 10100 nM
Cc1ccc(C2c3cc(OCCc4cccnc4)ccc3CCN2C(=O)NCc2cocn2)c(C)c1 (centres unmarked) [Compound 43] | 740 nM | 910 nM | 610 nM | 880 nM | – | – | – | – | –
Cc1ccc(C2c3cc(OCCc4cccnc4)c(F)cc3CCN2C(=O)NCc2cocn2)c(C)c1 (centres unmarked) [Compound 44] | 1720 nM | 1010 nM | 990 nM | 1000 nM | – | – | – | – | –
C=CC(=O)Nc1cc2c(cc1OCCc1cccnc1)C(c1ccc(C)cc1C)N(C(=O)NCc1cocn1)CC2 (centres unmarked) [Compound 45] | 790 nM | 990 nM | 890 nM | 870 nM | – | – | – | – | –
CCNC(=O)N1CCc2cc(OC)c(OCCc3cccnc3)cc2C1c1ccc(C)cc1C (centres unmarked) [Compound 46] | 600 nM | 700 nM | 500 nM | 700 nM | – | – | – | – | IC50 (NIH-H358 cell line): 842 nM
COc1cc2c(cc1OCCc1cccc(NC(C)=O)c1)C(c1ccc(C)cc1C)N(C(=O)NCc1cocn1)CC2 (centres unmarked) [Compound 47] | 1500 nM | 1200 nM | 1500 nM | 1500 nM | – | – | – | – | –
CCNC(=O)N1CCc2cc(OC)c(OCCc3cccc(N)c3)cc2C1c1ccc(C)cc1C (centres unmarked) [Compound 50] | 800 nM | 800 nM | 800 nM | 500 nM | – | – | – | – | IC50 (NIH-H358 cell line): 373 nM
CCNC(=O)N1CCc2cc(OC)c(OCCc3cnccn3)cc2C1c1ccc(C)cc1C (centres unmarked) [Compound 51] | 500 nM | 600 nM | 600 nM | 500 nM | – | – | – | – | IC50 (NIH-H358 cell line): 334 nM
COc1cc2c(cc1OCCc1cnccn1)C(c1ccc(C)cc1C)N(C(=O)NCc1ccon1)CC2 (centres unmarked) [Compound 52] | 600 nM | 600 nM | 700 nM | 500 nM | – | – | – | – | –
COc1cc2c(cc1OCCc1cccnc1C)C(c1ccc(C)cc1C)N(C(=O)NCc1cocn1)CC2 (centres unmarked) [Compound 58] | – | – | – | – | 600 nM | 600 nM | 600 nM | 500 nM | –
